Source: the NIST ThermoML archive (doi:10.1021/je900131q)
Several values for one entry are separate records, joined by “and”; a condition that tells them apart may be missing. Equal entries are not always repeated.

Details: Fluid (supercritical or subcritical phases); for mass density: Buoyancy - hydrostatic balance with magnetic suspension - one sinker; for viscosity: Vibrating wire viscometer

[He] [helium]
Details | mass density | viscosity [mPa·s]
293.13 K, 27527 kPa | 39.805 kg/m3 | 0.01975
293.14 K, 2446 kPa | 3.967 kg/m3 | 0.01958
293.14 K, 16374 kPa | 24.912 kg/m3 | 0.01958
293.14 K, 20744 kPa | 30.969 kg/m3 | 0.01962
293.14 K, 27529 kPa | 39.804 kg/m3 | 0.01975
293.15 K, 122.25 kPa | 0.19885 kg/m3 | 0.01954
293.15 K, 245.73 kPa | 0.40368 kg/m3 | 0.01958
293.15 K, 366.51 kPa | 0.59858 kg/m3 | 0.01959
293.15 K, 366.53 kPa | 0.60087 kg/m3 | 0.01959
293.15 K, 482.99 kPa | 0.79042 kg/m3 | 0.01959
293.15 K, 483 kPa | 0.79119 kg/m3 | 0.01959
293.15 K, 1219.9 kPa | 1.9866 kg/m3 | 0.01959
293.15 K, 1827.5 kPa | 2.9695 kg/m3 | 0.01958
293.15 K, 1827.6 kPa | 2.9711 kg/m3 | 0.01958
293.15 K, 2466.2 kPa | 3.9699 kg/m3 | 0.01958
293.15 K, 3714.2 kPa | 5.9819 kg/m3 | 0.01957
293.15 K, 3714.3 kPa | 5.9857 kg/m3 | 0.01956
293.15 K, 4978.6 kPa | 7.974 kg/m3 | 0.01956
293.15 K, 4978.7 kPa | 7.9747 kg/m3 | 0.01956
293.15 K, 4995.9 kPa | 7.9672 kg/m3 | 0.01957
293.15 K, 7564.1 kPa | 11.972 kg/m3 | 0.01955
293.15 K, 7564.2 kPa | 11.972 kg/m3 | 0.01955
293.15 K, 8842.9 kPa | 13.917 kg/m3 and 13.915 kg/m3 | 0.01955
293.15 K, 10227 kPa | 15.922 kg/m3 | 0.01957
293.15 K, 12231 kPa | 18.954 kg/m3 | 0.01956
293.15 K, 14295 kPa | 21.949 kg/m3 | 0.01957
293.15 K, 14296 kPa | 21.953 kg/m3 | 0.01957
293.15 K, 14320 kPa | 21.908 kg/m3 | 0.01959
293.15 K, 16374 kPa | 24.913 kg/m3 | 0.01958
293.15 K, 18460 kPa | 27.833 kg/m3 and 27.831 kg/m3 | 0.0196
293.15 K, 20744 kPa | 30.973 kg/m3 | 0.01963
293.15 K, 22880 kPa | 33.856 kg/m3 | 0.01966
293.15 K, 22883 kPa | 33.861 kg/m3 | 0.01966
293.15 K, 22973 kPa | 33.811 kg/m3 | 0.01968
293.15 K, 25224 kPa | 36.797 kg/m3 | 0.01972
293.15 K, 25329 kPa | 37.097 kg/m3 and 37.099 kg/m3 | 0.01969
293.16 K, 245.73 kPa | 0.40445 kg/m3 | 0.01958
293.16 K, 613.17 kPa | 1.0037 kg/m3 | 0.01959
293.16 K, 613.18 kPa | 1.0029 kg/m3 | 0.01959
293.16 K, 2447.5 kPa | 3.9693 kg/m3 and 3.9647 kg/m3 | 0.01958
293.16 K, 3742.3 kPa | 5.9974 kg/m3 | 0.01958
293.16 K, 4996.2 kPa | 7.965 kg/m3 | 0.01957
293.16 K, 6263.9 kPa | 9.9737 kg/m3 and 9.9745 kg/m3 | 0.01956
293.16 K, 6273.2 kPa | 9.9551 kg/m3 | 0.01957
293.16 K, 7587 kPa | 11.953 kg/m3 | 0.01957
293.16 K, 14320 kPa | 21.907 kg/m3 | 0.01959
293.16 K, 22974 kPa | 33.812 kg/m3 | 0.01968
293.16 K, 25225 kPa | 36.795 kg/m3 | 0.01971
293.16 K, 30149 kPa | 43.152 kg/m3 | 0.0198
293.16 K, 30150 kPa | 43.152 kg/m3 | 0.0198
293.17 K, 3742.6 kPa | 5.9981 kg/m3 | 0.01958
293.17 K, 6273.4 kPa | 9.9566 kg/m3 | 0.01957
293.17 K, 6273.7 kPa | 9.9551 kg/m3 | 0.01957
293.17 K, 7587.3 kPa | 11.953 kg/m3 | 0.01957
293.17 K, 8869.8 kPa | 13.892 kg/m3 | 0.01957
293.17 K, 10198 kPa | 15.951 kg/m3 and 15.945 kg/m3 | 0.01955
293.17 K, 12237 kPa | 18.892 kg/m3 | 0.01958
293.17 K, 18562 kPa | 27.894 kg/m3 | 0.01962
293.18 K, 2466.6 kPa | 3.9663 kg/m3 | 0.01959
293.18 K, 8870.2 kPa | 13.894 kg/m3 | 0.01957
293.18 K, 10228 kPa | 15.928 kg/m3 | 0.01958
293.18 K, 12237 kPa | 18.892 kg/m3 | 0.01958
293.18 K, 16436 kPa | 24.919 kg/m3 | 0.01961
293.18 K, 18563 kPa | 27.897 kg/m3 | 0.01964
293.18 K, 22975 kPa | 33.81 kg/m3 | 0.01968
293.19 K, 16436 kPa | 24.919 kg/m3 | 0.01961
293.19 K, 18564 kPa | 27.893 kg/m3 | 0.01963
293.2 K, 20756 kPa | 30.909 kg/m3 | 0.01965
293.2 K, 20757 kPa | 30.907 kg/m3 | 0.01966
293.21 K, 30174 kPa | 43.24 kg/m3 | 0.0198
293.21 K, 30175 kPa | 43.241 kg/m3 and 43.243 kg/m3 | 0.01979
293.22 K, 30175 kPa | 43.244 kg/m3 | 0.0198
293.24 K, 1220.6 kPa | 1.9766 kg/m3 | 0.01959
293.25 K, 1220.7 kPa | 1.978 kg/m3 | 0.0196
293.25 K, 1827.1 kPa | 2.949 kg/m3 | 0.01959
293.26 K, 613.3 kPa | 0.99551 kg/m3 | 0.0196
293.26 K, 1827.3 kPa | 2.9512 kg/m3 | 0.01959
293.27 K, 489.97 kPa | 0.79365 kg/m3 | 0.0196
293.27 K, 490.02 kPa | 0.79727 kg/m3 | 0.0196
293.27 K, 613.45 kPa | 0.99623 kg/m3 | 0.0196
293.28 K, 121.3 kPa | 0.19968 kg/m3 | 0.01954
293.28 K, 121.33 kPa | 0.19895 kg/m3 | 0.01955
293.28 K, 244.14 kPa | 0.39719 kg/m3 | 0.01958
293.28 K, 244.19 kPa | 0.39791 kg/m3 | 0.01958
293.28 K, 366.66 kPa | 0.59687 kg/m3 | 0.01959
293.28 K, 366.7 kPa | 0.59542 kg/m3 | 0.01959

N#N [nitrogen]
Details | mass density | viscosity [mPa·s]
293.11 K, 1737.3 kPa | 20.04 kg/m3 | 0.01776
293.11 K, 8684.1 kPa | 100.062 kg/m3 | 0.01931
293.11 K, 12288 kPa | 140.108 kg/m3 | 0.02039
293.12 K, 3456.5 kPa | 39.956 kg/m3 | 0.01807
293.12 K, 5188.4 kPa | 60.007 kg/m3 | 0.01843
293.12 K, 6932.1 kPa | 80.084 kg/m3 | 0.01884
293.12 K, 16079 kPa | 180.081 kg/m3 | 0.02168
293.12 K, 22359 kPa | 240.226 kg/m3 | 0.02399
293.12 K, 24666 kPa | 260.273 kg/m3 | 0.0249
293.13 K, 14176 kPa | 160.309 kg/m3 | 0.02101
293.14 K, 1741.7 kPa | 20.088 kg/m3 | 0.01775
293.14 K, 5190.1 kPa | 60.028 kg/m3 | 0.01841
293.14 K, 5191.3 kPa | 60.033 kg/m3 | 0.0184
293.14 K, 6919.8 kPa | 79.938 kg/m3 | 0.01881
293.14 K, 6919.9 kPa | 79.937 kg/m3 | 0.01881
293.14 K, 18079 kPa | 200.088 kg/m3 | 0.02238
293.15 K, 168.17 kPa | 1.9327 kg/m3 | 0.01754
293.15 K, 257.03 kPa | 2.9592 kg/m3 | 0.01755
293.15 K, 257.04 kPa | 2.9569 kg/m3 | 0.01755
293.15 K, 260.16 kPa | 2.9879 kg/m3 | 0.01754
293.15 K, 348.59 kPa | 4.0063 kg/m3 | 0.01757
293.15 K, 348.6 kPa | 4.0116 kg/m3 | 0.01756
293.15 K, 434.63 kPa | 4.9978 kg/m3 | 0.01756
293.15 K, 438.44 kPa | 5.0442 kg/m3 | 0.01758
293.15 K, 438.45 kPa | 5.045 kg/m3 | 0.01758
293.15 K, 865.03 kPa | 9.9564 kg/m3 | 0.01763
293.15 K, 865.04 kPa | 9.9572 kg/m3 | 0.01763
293.15 K, 867.69 kPa | 9.9877 kg/m3 | 0.01763
293.15 K, 3452.3 kPa | 39.892 kg/m3 | 0.01805
293.15 K, 8683.4 kPa | 100.04 kg/m3 | 0.01928
293.16 K, 87.06 kPa | 1.0006 kg/m3 | 0.0175
293.16 K, 174.08 kPa | 2.0011 kg/m3 | 0.01753
293.16 K, 6917.3 kPa | 79.905 kg/m3 | 0.01881
293.16 K, 8683.4 kPa | 100.03 kg/m3 | 0.01928
293.16 K, 10467 kPa | 120.042 kg/m3 | 0.01983
293.16 K, 10724 kPa | 122.91 kg/m3 and 122.9 kg/m3 | 0.01987
293.16 K, 20166 kPa | 220.109 kg/m3 | 0.02316
293.16 K, 27067 kPa | 279.903 kg/m3 | 0.02585
293.16 K, 30306 kPa | 304.692 kg/m3 | 0.02713
293.17 K, 347.38 kPa | 3.995 kg/m3 | 0.01756
293.17 K, 434.86 kPa | 5.0007 kg/m3 | 0.01757
293.17 K, 30306 kPa | 304.691 kg/m3 | 0.02714
293.18 K, 69.62 kPa | 0.79943 kg/m3 | 0.01749
423.09 K, 1261.4 kPa | 9.9995 kg/m3 | 0.02309
423.09 K, 2533.5 kPa | 20.001 kg/m3 | 0.0232
423.09 K, 7760.6 kPa | 60.009 kg/m3 | 0.02382
423.09 K, 19172 kPa | 140.043 kg/m3 | 0.02569
423.09 K, 25569 kPa | 180.07 kg/m3 | 0.02695
423.1 K, 377.31 kPa | 2.9994 kg/m3 | 0.02301
423.1 K, 629.65 kPa | 5.0007 kg/m3 | 0.02304
423.1 K, 5117.5 kPa | 40.01 kg/m3 | 0.02347
423.1 K, 22320 kPa | 160.186 kg/m3 | 0.02629
423.11 K, 100.56 kPa | 0.79993 kg/m3 | 0.02294
423.11 K, 125.69 kPa | 0.99956 kg/m3 | 0.02295
423.11 K, 251.45 kPa | 1.9998 kg/m3 | 0.02299
423.11 K, 10470 kPa | 79.969 kg/m3 | 0.0242
423.11 K, 13263 kPa | 99.939 kg/m3 | 0.02464
423.12 K, 503.26 kPa | 3.9997 kg/m3 | 0.02303
423.12 K, 16171 kPa | 120.044 kg/m3 | 0.02513
423.15 K, 30228 kPa | 206.995 kg/m3 | 0.02791
423.15 K, 30257 kPa | 207.176 kg/m3 | 0.02792
423.16 K, 30225 kPa | 206.975 kg/m3 | 0.02791
